Biological target: T1, Poly (ADP-ribose) polymerase-1 (PARP-1) (Homo sapiens, UniProt P09874)
T1 construct: gene PARP1
Test: radioligand saturation binding in PC-3 tumor xenografts

T1 sequence (P09874 2-1014): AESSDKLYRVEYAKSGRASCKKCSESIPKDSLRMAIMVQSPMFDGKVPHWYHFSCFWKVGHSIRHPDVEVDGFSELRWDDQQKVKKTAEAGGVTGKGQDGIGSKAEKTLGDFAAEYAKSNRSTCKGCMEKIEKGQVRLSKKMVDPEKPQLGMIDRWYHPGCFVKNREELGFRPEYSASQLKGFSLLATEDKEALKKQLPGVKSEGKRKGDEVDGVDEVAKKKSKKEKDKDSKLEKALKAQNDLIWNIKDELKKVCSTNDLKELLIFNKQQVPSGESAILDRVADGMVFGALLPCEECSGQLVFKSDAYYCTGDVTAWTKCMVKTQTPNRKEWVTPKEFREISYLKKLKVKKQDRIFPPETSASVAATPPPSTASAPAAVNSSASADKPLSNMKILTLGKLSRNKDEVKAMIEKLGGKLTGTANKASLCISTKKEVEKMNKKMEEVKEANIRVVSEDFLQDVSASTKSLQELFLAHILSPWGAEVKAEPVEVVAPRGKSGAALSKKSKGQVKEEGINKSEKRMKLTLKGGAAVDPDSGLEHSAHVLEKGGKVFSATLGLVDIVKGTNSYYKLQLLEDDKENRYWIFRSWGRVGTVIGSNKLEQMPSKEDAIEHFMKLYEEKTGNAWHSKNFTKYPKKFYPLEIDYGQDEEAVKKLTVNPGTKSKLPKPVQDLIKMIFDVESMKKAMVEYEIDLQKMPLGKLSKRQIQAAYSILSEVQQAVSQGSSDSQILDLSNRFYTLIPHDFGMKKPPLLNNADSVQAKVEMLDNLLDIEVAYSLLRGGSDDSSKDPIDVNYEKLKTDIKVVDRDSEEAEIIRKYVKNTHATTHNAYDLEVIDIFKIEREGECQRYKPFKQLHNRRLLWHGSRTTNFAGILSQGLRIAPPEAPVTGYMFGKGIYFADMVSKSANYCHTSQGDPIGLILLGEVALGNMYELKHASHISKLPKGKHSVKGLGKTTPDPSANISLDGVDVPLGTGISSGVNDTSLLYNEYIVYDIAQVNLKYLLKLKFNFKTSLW

- Kd: 580 ± 250 pM
Substance: [^77Br]Br-WC-DZ
